Source: US3966737A, “Fluoro-substituted dibenso[b,f] thiepins” (priority 1973, dated 1976)
“Also recorded” adds a separate entry of the source.

How the values were obtained:
Type in all cases: in vivo
[1] = tested on: turnover of dopamine in the basal ganglions; test: Determination of Homovanillinic Acid (HVA) in rat brain; conditions: rats; for Increase in HVA, %: two hours, titer in untreated rats set at 100%
Description: […] Thereafter, the homovanillinic acid is extracted from the supernatant portion of a homogenized mixture of the brains of the treated rats into butyl acetate and later into an aqueous solution and is oxidized with potassium ferric cyanide to a fluorescent dimer. […] The homovanillinic acid titer in untreated rats is arbitrarily set at 100%.

[2] = cataleptic effect in rats (intraperitoneal); conditions: for TD50 at 6 h: recorded every 30 minutes over 6 hours, read-out: ED50 (dose at which 50% of the animals are cataleptic)
Protocol: The following compounds were tested:
The test animals are considered to be cataleptic when the homolateral extremities remain in the crossed position for at least 10 seconds. The number of cataleptic animals is recorded every 30 minutes over a 6-hour period.

[3] = "Pole Climbing" Test, conditioned reaction and unconditioned reaction of rats; conditions: for ED50: Rattus norvegicus, po, read-out: ED50 (Blocking of the conditioned reaction); for Quotient-ED10 (Blocking of the unconditioned reaction)/ED50 (Blocking of the conditioned reaction): higher quotient = stronger selectivity of the neuroleptic effect
Description: The test provides information regarding the behavioral reactions of rats. Rats are trained to avoid an electrical stimulus (unconditioned stimulation) which is effected through a base grid a few seconds after an acoustical signal (conditioned stimulation) by climbing up a vertical rod in the test chamber. The blocking of the conditioned reaction is expressed by the parameter ED50 (mg/kg. p.o.), the blocking of the unconditioned reaction is expressed by the parameter ED10 (mg/kg. p.o.).

[4] = Rotating Rod Test (coordinated motor performance of mice); conditions: for ED50: Mus musculus, po, read-out: ED50 (dose which reduces the holding on period of the mice by 50%); for activity in the Rotating Rod Test (in words): compared with chlorpromazine
Protocol: In the Rotating Rod Test, the ability of mice to achieve a coordinated motor performance is investigated. After peroral administration of the test substance, the mice are placed upon a horizontal slowly rotating rod and the time they remain […] the rod is recorded.

[5] = rat, in vivo, ip, rats, intraperitoneal
[6] = rats, intraperitoneal, as compared to chlorpromazine

SMILES	activity in the HVA test relative to chlorpromazine (in words) [1]	Increase in HVA, % ([1]; 50 mg/kg p.o.) [%]	TD50 at 6 h [2, 5] [mg/kg]	cataleptic effect (in words) [2, 6]	ED50 ([3]; rats, p.o.) [mg/kg]	quality (selectivity) of the neuroleptic activity relative to chlorpromazine (in words) ([3]; rats, p.o.)	strength of the neuroleptic activity relative to chlorpromazine (in words) ([3]; rats, p.o.)	Quotient-ED10 (Blocking of the unconditioned reaction)/ED50 (Blocking of the conditioned reaction) ([3]; rats, p.o.)	ED50 ([4]; mice, peroral) [mg/kg]	activity in the Rotating Rod Test (in words) ([4]; mice, peroral)	activity in the Rotating Rod Test (in words) ([4]; mice, peroral, maleate)	ED50 [3] [mg/kg]	Increase in HVA, % ([1]; 20 mg/kg p.o.) [%]	ED50 [4] [mg/kg]	cataleptic effect (in words) ([2]; rat, in vivo, ip)
O=C(O)/C=C\C(=O)O.OCCCN1CCN(C2Cc3cc(Cl)ccc3Sc3ccc(F)cc32)CC1 (stereo not drawn) [Product C, 4-(2-chloro-8-fluoro-10,11-dihydro-dibenzo[b,f]thiepin-10-yl)-1-piperazinepropanol maleate]	nearly as potent as that of chlorpromazine	273	64	only very weak cataleptic effect											
CN1CCN(C2Cc3ccc(Cl)cc3Sc3ccc(F)cc32)CC1.O=C(O)/C=C\C(=O)O (stereo not drawn) [Product B, 1-(3-chloro-8-fluoro-10,11-dihydro-dibenzo[b,f]thiepin-10-yl)-4-methylpiperazine maleate]			100	only very weak cataleptic effect	27	considerably superior to that of chlorpromazine	about half of that of chlorpromazine	11.0	3.1	superior to chlorpromazine					
CN1CCN(C2Cc3cc(Cl)ccc3Sc3cc(F)ccc32)CC1.O=C(O)/C=C\C(=O)O (stereo not drawn) [Product A, 1-(2-chloro-7-fluoro-10,11-dihydro-dibenzo[b,f]thiepin-10-yl)-4-methylpiperazine maleate]	nearly as potent as that of chlorpromazine	280	70	only very weak cataleptic effect	30	about equal to that of chlorpromazine	about half that of chlorpromazine	3.3	5.8		strong activity; also recorded: activity approximates that of chlorpromazine				
CN(C)CCCN1c2ccccc2Sc2ccc(Cl)cc21 [Chlorpromazine, chlorpromazine, reference compound]								3.5				11.6	321	5	does demonstrate cataleptic effects
